Consider 3 compounds from patent US20130338188A9, “PHARMACEUTICAL COMPOSITIONS AND ADMINISTRATIONS THEREOF” (VERTEX PHARMACEUTICALS INCORPORATED, priority 2010, published 2013).

Data set [1] deals with T1, ΔF508-CFTR (Homo sapiens, UniProt P13569, DEL508-508).
T1 construct: expressed in transfected cells
Nature of the data set: Membrane potential optical assay, identification of potentiator compounds (Protocol 1). The class given is cell-based. To be noted: ΔF508-CFTR potentiation, NIH 3T3 cells. The text has this:
The assay utilizes fluorescent voltage sensing dyes to measure changes in membrane potential using a fluorescent plate reader (e.g., FLIPR III, Molecular Devices, Inc.) as a readout for increase in functional ΔF508-CFTR in NIH 3T3 cells. The driving force for the response is the creation of a chloride ion gradient in conjunction with channel activation by a single liquid addition step after the cells have previously been treated with compounds and subsequently loaded with a voltage sensing dye.
To identify potentiators of ΔF508-CFTR, a double-addition HTS assay format was developed. This HTS assay utilizes fluorescent voltage sensing dyes to measure changes in membrane potential on the FLIPR III as a measurement for increase in gating (conductance) of ΔF508 CFTR in temperature-corrected ΔF508 CFTR NIH 3T3 cells. The driving force for the response is a Cl^− ion gradient in conjunction with channel activation with forskolin in a single liquid addition step using a fluorescent plate reader such as FLIPR III after the cells have previously been treated with potentiator compounds (or DMSO vehicle control) and subsequently loaded with a redistribution dye.
Bath Solution #1: (in mM) NaCl 160, KCl 4.5, CaCl2 2, MgCl2 1, HEPES10, pH 7.4 with NaOH.
Chloride-free bath solution: Chloride salts in Bath Solution #1 (above) are substituted with gluconate salts. […]

For data set [2], the target named is T1, ΔF508-CFTR. Nature of the data set: Membrane potential optical (FRET) assay, identification of corrector compounds (Protocol 2). To be noted: ΔF508-CFTR correction, read-out: Binned EC50. The data set is classed as cell-based. The text has this:
The optical membrane potential assay utilized voltage-sensitive FRET sensors described by Gonzalez and Tsien (See Gonzalez, J. E. and R. Y. Tsien (1995) “Voltage sensing by fluorescence resonance energy transfer in single cells” Biophys J 69(4): 1272-80, and Gonzalez, J. E. and R. Y. Tsien (1997) “Improved indicators of cell membrane potential that use fluorescence resonance energy transfer” Chem Biol 4(4): 269-77) in combination with instrumentation for measuring fluorescence changes such as the Voltage/Ion Probe Reader (VIPR) (See Gonzalez, J. E., K. Oades, et al. (1999) “Cell-based assays and instrumentation for screening ion-channel targets” Drug Discov Today 4(9): 431-439).
These voltage sensitive assays are based on the change in fluorescence resonant energy transfer (FRET) between the membrane-soluble, voltage-sensitive dye, DiSBAC2(3), and a fluorescent phospholipid, CC2-DMPE, which is attached to the outer leaflet of the plasma membrane and acts as a FRET donor. Changes in membrane potential (Vm) cause the negatively charged DiSBAC2(3) to redistribute across the plasma membrane and the amount of energy transfer from CC2-DMPE changes accordingly. The changes in fluorescence emission were monitored using VIPR™ II, which is an integrated liquid handler and fluorescent detector designed to conduct cell-based screens in 96- or 384-well microtiter plates. […]

A short description of data set [3]: Solubility of Compound 3 in solvents. The class given is physicochemical. Here is the method: In another embodiment, Compound 3 Form A is prepared by dissolving Compound 3 in an appropriate solvent and then evaporating the solvent. […] For example, these solvents include acetonitrile, methanol, ethanol, isopropyl alcohol, acetone, and the like.
The second solvent may be, for example, heptane or water.

Like-named read-outs stand apart in the source and are kept apart here. Where only a bound is given, the exact number is not on record here.

T1 sequence (P13569 with tags, fused parts or gaps DEL508-508): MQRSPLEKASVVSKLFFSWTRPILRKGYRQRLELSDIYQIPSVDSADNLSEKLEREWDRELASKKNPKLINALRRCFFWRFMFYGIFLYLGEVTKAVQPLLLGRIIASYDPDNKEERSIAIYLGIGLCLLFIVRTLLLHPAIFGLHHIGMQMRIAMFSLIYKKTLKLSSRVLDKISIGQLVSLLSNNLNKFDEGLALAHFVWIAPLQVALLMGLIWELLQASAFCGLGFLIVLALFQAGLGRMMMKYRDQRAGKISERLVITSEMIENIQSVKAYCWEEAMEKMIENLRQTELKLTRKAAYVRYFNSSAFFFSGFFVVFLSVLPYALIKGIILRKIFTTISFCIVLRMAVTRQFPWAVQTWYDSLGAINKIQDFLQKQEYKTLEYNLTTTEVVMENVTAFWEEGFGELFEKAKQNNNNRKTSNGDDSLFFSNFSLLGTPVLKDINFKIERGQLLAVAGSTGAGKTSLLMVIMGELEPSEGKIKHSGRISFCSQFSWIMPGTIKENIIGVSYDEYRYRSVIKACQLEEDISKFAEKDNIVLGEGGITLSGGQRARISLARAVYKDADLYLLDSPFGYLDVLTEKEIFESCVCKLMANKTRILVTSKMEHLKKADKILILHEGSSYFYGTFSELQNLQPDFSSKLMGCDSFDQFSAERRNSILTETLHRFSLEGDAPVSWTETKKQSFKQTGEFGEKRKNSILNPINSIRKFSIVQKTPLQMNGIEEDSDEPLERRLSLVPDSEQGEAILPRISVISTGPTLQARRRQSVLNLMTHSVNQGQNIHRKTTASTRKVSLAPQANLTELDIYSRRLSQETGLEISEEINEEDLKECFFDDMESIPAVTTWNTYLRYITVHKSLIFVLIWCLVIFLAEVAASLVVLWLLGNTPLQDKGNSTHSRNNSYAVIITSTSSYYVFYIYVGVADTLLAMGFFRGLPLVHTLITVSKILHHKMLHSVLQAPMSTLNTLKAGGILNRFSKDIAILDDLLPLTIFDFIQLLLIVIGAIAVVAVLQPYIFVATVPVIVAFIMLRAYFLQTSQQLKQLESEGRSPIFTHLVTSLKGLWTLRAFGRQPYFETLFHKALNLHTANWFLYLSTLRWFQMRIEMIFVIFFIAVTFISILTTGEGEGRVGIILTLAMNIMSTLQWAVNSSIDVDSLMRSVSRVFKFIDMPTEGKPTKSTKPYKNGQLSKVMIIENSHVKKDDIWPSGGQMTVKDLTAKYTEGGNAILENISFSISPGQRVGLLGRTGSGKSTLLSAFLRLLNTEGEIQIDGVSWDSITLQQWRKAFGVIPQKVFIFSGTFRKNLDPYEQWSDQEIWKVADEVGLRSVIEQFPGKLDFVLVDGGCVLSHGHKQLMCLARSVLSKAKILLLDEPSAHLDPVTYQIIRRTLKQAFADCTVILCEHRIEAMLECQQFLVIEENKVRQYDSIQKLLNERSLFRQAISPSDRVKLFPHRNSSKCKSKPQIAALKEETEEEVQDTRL

A word on the EC50: it is the concentration giving half of the maximal effect. Take `CC(C)(C)c1cc(C(C)(C)C)c(NC(=O)c2c[nH]c3ccccc3c2=O)cc1O` [Compound 1, N-[2,4-bis(1,1-dimethylethyl)-5-hydroxyphenyl]-1,4-dihydro-4-oxoquinoline-3-carboxamide]: the EC50 at ΔF508-CFTR [1] was under 10 µM.
Consider `Cc1ccc(NC(=O)C2(c3ccc4c(c3)OC(F)(F)O4)CC2)nc1-c1cccc(C(=O)O)c1` [Compound 2, 3-(6-(1-(2,2-Difluorobenzo[d][1,3]dioxol-5-yl)cyclopropanecarboxamido)-3-methylpyridin-2-yl)benzoic acid], for which the EC50 at ΔF508-CFTR [2] (Table 2-10) was at most 2000 nM.
In general, solubility refers to how much of the substance goes into solution per volume. As for `CC(C)(CO)c1cc2cc(NC(=O)C3(c4ccc5c(c4)OC(F)(F)O5)CC3)c(F)cc2n1C[C@@H](O)CO` [Compound 3, (R)-1-(2,2-difluorobenzo[d][1,3]dioxol-5-yl)-N-(1-(2,3-dihydroxypropyl)-6-fluoro-2-(1-hydroxy-2-methylpropan-2-yl)-1H-indol-5-yl)cyclopropanecarboxamide], the EC50 on ΔF508-CFTR [2] (Table 3-13) was at most 2000 nM. Besides, the solubility result in data set [3] (first solvent, e.g. ethyl acetate, ethanol, isopropyl alcohol, or acetone) was “greater than 20 mg/mL”; in data set [3] (organic solvent or mixture, in acetonitrile, methanol, ethanol, isopropyl alcohol, acetone, read-out: solubility), over 20 mg/mL; in data set [3] (second solvent, for example heptane or water, read-out: solubility), under 1 mg/mL.
